Test results reported in patent US4749790A, “Process for preparing H2 receptor antagonist ascorbate compounds” (priority 1985, dated 1988).
Values after ≈ are worked out from the molar mass of the structure shown. Where two headings read alike, the source gives them in different places. Each block holds one molecule with its values, some of them ahead of it.

Assays:
pH of aqueous solution = format: physicochemical
[1] = Nitrosation in gastric juice or simulated gastric juice (Griess reagent, TLC); details: for NC (nitrosocimetidine) found: 75 ml simulated gastric juice, 37° C., pH 1.0-3.5, ascorbate-nitrite 6:1 molar ratio
[2] = Stability to ambient environment (air, light, oxidation)
rats = details: eight days treatment, 500 mg/kg; cited from earlier work
[3] = wide pH range; cited from earlier work
[4] = 70° C.; 20 min (10% hydrochloric acid), 180 min (ascorbic acid); cited from earlier work
[5] = test system: desoxyribonucleic acid (DNA); details: cimetidine 250 mg/kg with nitrite 80 mg/kg; cited from earlier work
gastric carcinoma = details: in vivo; cited from earlier work

Structure (SMILES): CNC(=NC#N)NCCSCc1nc[nH]c1C [Example 1, Cimetidine L-ascorbate]
water solubility (in words) (Solubility in water): soluble in water
pH of aqueous solution (pH of aqueous solution): 4.5
outcome of relapse and improvement maintenance cases (duodenal ulcer; maintenance doses 680 mg ascorbate or 860 mg diascorbate, one year continuously, two years with breaks): normality being achieved
outcome in males with duodenal ulcer diagnosis (duodenal ulcer; males aged 55-60 years, usual periods of cimetidine medication): back to normal
NC (nitrosocimetidine) found ([1]; listed as cimetidine ascorbate): 0.18 ppm

pH of aqueous solution (pH of aqueous solution): 3.5
Structure (SMILES): CNC(=C[N+](=O)[O-])NCCSCc1ccc(CN(C)C)o1 [Example 8, Ranitidine L-ascorbate]

solubility (Solubility in water; water, Solubility in water, room temperature where printed): 75 mg/mL (≈ 222 mM)
pH of aqueous solution (pH of aqueous solution): 5.9
pH of aqueous solution (pH of aqueous solution; listed as famotidine ascorbate): 5.6
Structure (SMILES): NC(N)=Nc1nc(CSCCC(N)=NS(N)(=O)=O)cs1 [Example 12, Famotidine L-ascorbate]
stability to air, light, ambient conditions [2]: has to be preserved from the air and light

water solubility (in words) (Solubility in water): water soluble
Structure (SMILES): Nc1n[s+]([O-])nc1NCCCOc1cccc(CN2CCCCC2)c1 [Example 14, CM.5 antagonist L-ascorbate]
stability to air, light, ambient conditions [2]: has to be preserved from the air and light

water solubility (in words) (Solubility in water): water soluble
Structure (SMILES): Cc1ccc(Cc2c[nH]c(NCCSCc3ccc(CN(C)C)o3)nc2=O)cn1 [Example 15, CM.10 antagonist L-ascorbate]

Structure (SMILES): CN/C(=N/CCSCc1nc[nH]c1C)NC#N [Example 16, Cimetidine diascorbate]
stability to air, light, ambient conditions [2]: has to be preserved from the air and light
NC (nitrosocimetidine) found [1]: 0.13 ppm
NC produced in cases of hyperchlorhydria ([1]; abnormally high nitrite concentrations): 0.08 ppm

TLC spot of nitroso derivative at Rf = 0.83 ([1]; gastric juice pH 1.5, 318 mg diascorbate, 18.2 mg sodium nitrite, 60 min): did not appear
Structure (SMILES): CNC(=C[N+](=O)[O-])NCCSCc1ccc(CN(C)C)o1 [Example 18, Ranitidine diascorbate]

Structure (SMILES): Cc1[nH]cnc1CSCCN=C(NC#N)N(C)N=O [NC, nitrosocimetidine]
toxic effect (rats): no toxic effect

Structure (SMILES): O=C1O[C@H]([C@@H](O)CO)C(O)=C1O [ascorbic acid, 3-oxo-L-gulofuranelactone (enolic form)]
inhibition of N-nitroso compound formation [3]: most effective over a wide pH range
denitrosation [4]: innefective

Structure (SMILES): CN/C(=N/CCSCc1nc[nH]c1C)NC#N [cimetidine, N"-cyano-N'-methyl-N-2-(5-methyl-1H-imidazol-4-yl)methylthioethylguanidine]
evidence of DNA damage [5]: no evidence of desoxyribonucleic acid (DNA) damage
gastric carcinoma related with treatment (gastric carcinoma): appearance of a gastric carcinoma
NCD (nitroso compound derivatives) determined ([1]; 400 mg cimetidine, 36.4 mg sodium nitrite, 75 ml gastric juice, pH 1.5, 37° C., 60 min): 100 ppm

Structure (SMILES): Cl [hydrochloric acid]
denitrosation [4]: innefective

Structure (SMILES): CNC(=C[N+](=O)[O-])NCCSCc1ccc(CN(C)C)o1 [ranitidine, N-(2-(((5-((dimethylamino)methyl)-2-furanyl)methyl)thio)ethyl)N'-methyl-2-nitro-1,1-ethenediamine, reference compound]
formation of nitroso compounds / nitrosatability ([1]; gastric juice conditions): causes the formation of nitroso derivatives and nitrosated degradation products
